# Laboratory results as given in patent US20040009939A1, “Methods of enhancing immune induction involving MDA-7” (Board of Regent, The University of Texas System, priority 2002, published 2004).
# Legend:
# Assay type in all cases: cell-based, human
# [1] = tested on: A549 and H1299 lung cancer cell lines; experiment: XTT cellular viability assay; settings: 2-AP (10 mM) alone
# Protocol: (§1) Apoptotic cells by propidium iodide staining and FACS analysis were measured. Cells were harvested, pelleted by centrifugation and resuspended in phosphate-buffered saline containing 50 μg/ml propidium iodide, 0.1% Triton X-100, and 0.1% sodium citrate. Samples were stored at 4° C. for 16 hours and vortexed prior to FACS analysis (Becton-Dickenson FACScan, Mountain View, Calif.; FL-3 channel). Cellular viability was assessed with the XTT assay by growing cells in 96-well plates at 100 μL volume/well. After treatment with Ad-mda7 or control vectors, cells were incubated with the tetrazolium salt XTT according to the Roche protocol (Roche Diagnostics, Mannheim, Germany). Viability was assessed spectrophotometrically on an enzyme-linked immunosorbent assay (ELISA) plate reader.
# (§2) Apoptotic cells were measured by propidium iodide staining and FACS analysis. Cells were harvested, pelleted by centrifugation and resuspended in phosphate-buffered saline (PBS) containing 50 μg/ml propidium iodide, 0.1% Triton X-100, and 0.1% sodium citrate. Samples were stored at 4° C. for 16 hours and vortexed prior to FACS analysis (Becton-Dickenson FACScan, Mountain View, Calif.; FL-3 channel). Cellular viability was assessed with the XTT assay by growing cells in 96-well plates in 100 μl volume/well. […] Viability was assessed spectrophotometrically on an enzyme-linked immunosorbent assay (ELISA) plate reader.
# PKR = experiment: Immunoblot and confocal analysis of PKR, PKR substrates and caspases; settings: A549; immunoprecipitation; 10 mM 2-AP
# Protocol: Forty-eight hours after transfection, cell extracts were prepared for immunoblot assays as previously described (Pataer et al, 2000). The following antibodies were used: Bc1-2, Bak, Bax, PKR (K-17), eIF-2α, β-actin, p38 (A-12), phosphospecific p38 (D-8), stat1 (C-136), phosphospecific stat1 (A-2), stat3 (F-2), phosphospecific stat3 (B-7), anti-Tyk2 (C-20) and phosphospecific anti-Tyk (PY-99) (Santa Cruz Biotechnology, Santa Cruz, Calif.); Caspase 3, caspase-9, caspase-8 and Bid (PharMingen , San Diego, Calif.) and the phosphospecific PKR [pT451] and eIF-2a [pS51] (BioSource International, Camarillo, Calif.). The polyclonal and monoclonal antibodies to MDA-7 were obtained from Introgen Therapeutics, Inc. (Houston, Tex.).
# 4×10^5 cells/well were grown on chamber slides overnight and infected with Ad-mda7, Ad-Luc or PBS. 48 hrs later cells were washed with PBS and fixed overnight in 4% paraformaldehyde. Cells were then permeabilized for 20 min at 4° C. with 0.2% triton-X10O and blocked with 5% normal horse serum and 1% normal goat serum. Rabbit polyclonal anti-MDA7 and mouse monoclonal anti-PKR(B-10) were incubated overnight at 4° C. and developed with Rhodamine or FITC goat anti-rabbit IgG for 30-45 min at 37° C. Cells were then visualized under confocal microscopy.
# [2] = tested on: A549 (wt p53), H1299 (null p53), and H322J (mutant p53) lung cancer cells; experiment: Apoptosis by propidium iodide staining and FACS in lung cancer cells; settings: combination with 2-AP
# Protocol: as §1, §2
# [3] = tested on: eIF-2α protein synthesis inhibition; experiment: Measurement of cellular protein synthesis; settings: with 2-AP
# Protocol: Cells were treated with Ad-mda7 or Ad-Luc for 48 hrs. Where indicated, cells were treated with 1 mM 2-AP for 48 hrs. Measurement of protein synthesis was performed as previously described (14). After treatment, approximately 1×10^6 cell equivalents were incubated with L-[U-^14C] amino acid mixture (Amersham, Piscataway, N.J.) at 2 μCi/ml for 10 min at 37° C. The reaction was terminated by the addition of 20% (wt/vol) trichloroacetic acid and the radioactivity in the acid-precipitable fraction was measured in a scintillation counter.
# NF-κB = NF-κB activation (electromobility shift assay)
# Protocol: Studies were conducted to determine whether transgenic MDA-7 expression results in NF-κB activation, and to evaluate the role of NF-κB in protecting tumor cells from MDA-7 induced apoptosis.
# H1299 cells = experiment: MDA-7 secretion and trypan blue cytotoxicity with glycosylation and secretion inhibitors; settings: for concentration that completely blocks secretion of MDA-7 protein: Ad-mda7 transduced H1299
# Protocol: Since glycosylated proteins generally acquire sugars during sorting through the ER and Golgi apparatus, the effect of glycosylation and secretion inhibitors on MDA-7 intracellular processing and subsequent secretion was evaluated. Tunicamycin inhibits the addition of sugars to proteins within the ER, while brefeldin A inhibits vesicle transport of proteins from the ER to the Golgi. Both disrupt the secretion of proteins. The cytotoxicity caused by Ad-mda7 in the presence of these glycosylation and secretion inhibitors was evaluated. Tunicamycin and brefeldin A levels were titrated until inhibition of secretion of MDA-7 protein could be detected. As shown in FIGS. 26A and 26B, treatment of H1299 cells with 2 μg/ml tunicamycin completely blocks secretion of MDA-7 protein, whereas less than 1 μg/ml of brefeldin A is required for this effect. Note that blocking secretion using either drug results in substantial intracellular accumulation of MDA-7 protein. […] The enhanced killing may be due to the tunicamycin sensitizing cells to apoptotic death. […] Therefore, secreted MDA-7 protein is unable to induce killing in cancer cells and is not required for Ad-mda7 mediated apoptosis and eventual killing of cancer cells (FIG. 32B).
# H1299 and A549 cells = experiment: Mitochondrial membrane potential (TMRE) and apoptosis; settings: Staurosporine 1 μM
# Protocol: Apoptotic cells were measured by propidium iodide staining and FACS analysis. Cells were harvested, pelleted by centrifugation and resuspended in phosphate-buffered saline (PBS) containing 50 μg/ml propidium iodide, 0.1% Triton X-100, and 0.1% sodium citrate. Samples were stored at 4° C. for 16 hours and vortexed prior to FACS analysis (Becton-Dickenson FACScan, Mountain View, Calif.; FL-3 channel). Cellular viability was assessed with the XTT assay by growing cells in 96-well plates in 100 μl volume/well. On day one, cells were transduced with Ad-mda-7, Ad-p53 or control vectors. On day two, the cells were incubated with the tetrazolium salt XTT for 4 to 24 hours according to the Roche protocol (Roche Diagnostics, Mannheim, Germany). Viability was assessed spectrophotometrically on an enzyme-linked immunosorbent assay (ELISA) plate reader.
# The potential-sensitive fluorochrome tetramethylrhodamine, ethylester, perchlorate (TMRE) (Molecular Probes, Eugene, Oreg.) was used to measure ΔΨm. Cells were incubated with 25 nM TMRE for 30 minutes at 37° C. in the dark, washed in PBS, and analyzed by FACS on the FL-2 channel (FACScan: Becton Dickinson, Mountain View, Calif.).
# HUVEC and HMVEC cells = experiment: Endothelial cell differentiation (tube formation) assay; settings: HUVEC and HMVEC; 24 h
# Protocol: Endothelial cell differentiation (tube formation) assays were done using an in vitro angiogenesis assay kit (Chemicon, Temecula, Calif.). Briefly, HUVEC and HMVEC cells were grown to 80% confluency, collected, resuspended in growth medium and plated at a concentration of 2×10^4 cells/well in a 96-well plate coated with matrigel (Chemicon, Temecula, Calif.). To the wells, varying concentrations of MDA-7 protein were added and incubated for 24 h at 37° C. Wells that were not treated with MDA-7 protein served as a negative control. The ability of sMDA-7 to inhibit tube formation was determined and quantitated by counting the number of tubes under bright field microscopy. All samples were tested in duplicate. For comparative studies using MDA-7 and endostatin (Calbiochem), cells were plated as described above and exposed to varying concentration of the proteins. […] All other experimental procedures were the same as described above.
molecule,measurement,setting,value
"Nc1ncc2[nH]cnc2n1.O=[N+]([O-])O [2-AP, 2-Aminopurine Nitrate Salt]",cell viability,[1],no effect on cell viability
same,PKR and eIF-2α phosphorylation in Ad-mda7 treated cells,PKR,attenuated PKR activation with inhibition of both PKR and eIF-2α phosphorylation
same,apoptosis induction and cell killing in cells treated with Ad-mda7,[2],blocked apoptosis induction and cell killing in a dose dependent manner
same,protein synthesis in Ad-mda7 treated cells,[3],reversal of eIF-2α protein synthesis inhibition
CC1=C(CC(=O)O)c2cc(F)ccc2/C1=C\c1ccc([S+](C)[O-])cc1 (stereo not drawn) [Sulindac],TNF-mediated NF-κB activation,NF-κB,inhibited TNF-mediated NF-κB activation in a dose-dependent manner
same,activation of the NF-κB pathway,NF-κB,inhibited the activation of the NF-κB pathway
C[C@H]1CCC/C=C/[C@@H]2C[C@H](O)C[C@H]2[C@H](O)/C=C/C(=O)O1 [brefeldin A],concentration that completely blocks secretion of MDA-7 protein,H1299 cells,less than 1 μg/ml
CN[C@@H]1C[C@H]2O[C@@](C)([C@@H]1OC)n1c3ccccc3c3c4c(c5c6ccccc6n2c5c31)C(=O)NC4 [staurosporine],MMP changes and apoptosis,H1299 and A549 cells; A549 cells,induces MMP changes and apoptosis
same,MMP changes and apoptosis,H1299 and A549 cells; H1299 cells,able to induce MMP changes and the induction of apoptosis
endostatin [reference compound],inhibition of endothelial tube formation,HUVEC and HMVEC cells,the inhibitory effect by endostatin was not observed
tunicamycin,"cell death, inhibitor alone","H1299 cells; 2 μg/ml tunicamycin, trypan blue",did not induce death
same,concentration that completely blocks secretion of MDA-7 protein,H1299 cells,2 µg/mL
